According to patent US7696357B2, “Stable hydrate of a muscarinic receptor antagonist” (Novartis International Pharmaceutical Ltd., priority 2002, dated 2010):

Experiment: storage stability / shelf life of the solid form
Assay type: physicochemical
Conditions: storage over time

SMILES	stability on storage (in words)	stability on storage (in words) (hydrate)	stability on storage (in words) (listed as solid hydrate, hydrate)
NC(=O)C(c1ccccc1)(c1ccccc1)[C@@H]1CCN(CCc2ccc3c(c2)CCO3)C1 [free base, (S)-2-{1-[2-(2,3-dihydrobenzofuran-5-yl)ethyl]-3-pyrrolidinyl}-2,2-diphenylacetamide, reference compound]	very unstable		
NC(=O)C(c1ccccc1)(c1ccccc1)[C@@H]1CCN(CCc2ccc3c(c2)CCO3)C1 [darifenacin hydrate, (S)-2-{1-[2-(2,3-dihydrobenzofuran-5-yl)ethyl]-3-pyrrolidinyl}-2,2-diphenylacetamide hydrate]		stable over long periods	remain stable for well over a year
NC(=O)C(c1ccccc1)(c1ccccc1)[C@@H]1CCN(CCc2ccc3c(c2)CCO3)C1 [toluene solvate, (S)-2-{1-[2-(2,3-dihydrobenzofuran-5-yl)ethyl]-3-pyrrolidinyl}-2,2-diphenylacetamide toluene solvate]	not stable over medium to long term storage periods		
